From ChEMBL document CHEMBL1201862, “PubChem BioAssay data set” (2004) come the findings set out here.

The structures appear in SMILES notation.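 Test compounds were applied to cells in 96-well plates for 48 hours at 5 doses. Abbreviation: GI50, concentration required for 50% inhibition of growth.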 Activity calls are given as the source filed them. Rule as the data show it: active = GI50 up to about 1.1 µM and inactive = higher.

Some test systems named below: CCRF-CEM; SK-OV-3; HL-60; MDA-MB-231; OVCAR-5; MDA-MB-435; TK-10; Malme-3M; SK-MEL-5; LOX IMVI; NCI-H23; HCT-15; IGROV-1; SF-295; MCF7; SF-539; NCI-H460; T47D; MDA-N; BT-549.
Assay in all cases: growth of human tumour cells (NCI), 48 h

For the compound `CC(=O)c1sc2c(c1OC(=O)c1ccc(Cl)cc1Cl)c(=O)n(-c1ccccc1)c(=S)n2-c1ccccc1`, the GI50 with CCRF-CEM was 0.26 µM (active); in the assay on SK-OV-3, 0.3 µM (active); in the assay on HL-60, 3.81 µM (inactive); in the assay on MDA-MB-231, 0.861 µM (active); in the assay with OVCAR-5, 0.64 µM (active); with MDA-MB-435, 1 µM (active). Further, the GI50 with TK-10 is 4.57 µM (inactive); in the assay on Malme-3M it was 0.252 µM (active); in the assay with SK-MEL-5, 1.8 µM (inactive); with LOX IMVI, 0.321 µM (active); in the assay with NCI-H23, 5.83 µM (inactive); with HCT-15, 2.18 µM. Also, the GI50 with IGROV-1 is 5.51 µM (inactive); in the assay on SF-295 it was 0.267 µM (active); with MCF7 it was 8.55 µM (inactive); in the assay with SF-539, 0.251 µM (active); in the assay on NCI-H460, 1.99 µM (inactive); in the assay with T47D, 9.27 µM (inactive). Besides, in the assay with MDA-N, the GI50 was 0.741 µM (active).

With `CN(CCN1C(=O)c2cccc3cccc(c23)C1=O)CCN1C(=O)c2cccc3cccc(c23)C1=O`, the GI50 in the assay with CCRF-CEM is 2.18 µM (inactive); in the assay on SK-OV-3, 4.29 µM (inactive); in the assay with HL-60, 68.7 µM (inactive); in the assay on MDA-MB-231, 13.7 µM (inactive); with OVCAR-5 it was > 100 µM (inactive); in the assay with MDA-MB-435, > 100 µM (inactive). For the same compound, the GI50 in the assay with TK-10 was 14.1 µM (inactive); in the assay with BT-549 it was 53.1 µM (inactive); with Malme-3M it was 6 µM (inactive); with SK-MEL-5, > 100 µM (inactive); in the assay on LOX IMVI it was 58.6 µM (inactive); in the assay on NCI-H23, 16.9 µM (inactive). Also, the GI50 in the assay on HCT-15 is 0.178 µM; in the assay on IGROV-1, 17.4 µM (inactive); in the assay with SF-295, 12.8 µM (inactive); in the assay on MCF7 it was 84.3 µM (inactive); in the assay on SF-539 it was 32.7 µM (inactive); in the assay with NCI-H460 it was 16.3 µM (inactive). The GI50 in the assay on T47D is 1.5 µM (inactive).

With `Cc1ccccc1N/C(N)=N/C#N`, the GI50 in the assay with CCRF-CEM, in the assay with SK-OV-3, in the assay with HL-60, in the assay with MDA-MB-231, in the assay with OVCAR-5 and in the assay with MDA-MB-435 was > 100 µM (inactive) throughout. The GI50 with TK-10, with BT-549, with Malme-3M, in the assay with SK-MEL-5, in the assay with LOX IMVI and in the assay with NCI-H23 was > 100 µM (inactive) throughout. In addition, the GI50 in the assay on HCT-15 is greater than 100 µM; in the assay on IGROV-1, > 100 µM (inactive); with MCF7 it was > 100 µM (inactive); in the assay on SF-539, > 100 µM (inactive); with NCI-H460, > 100 µM (inactive); in the assay on MDA-N, > 100 µM (inactive).

With `CN(C)c1ccc(-c2c(C#N)c(O)n(NS(=O)(=O)c3ccccc3)c(=O)c2C#N)cc1`, the GI50 is > 100 µM (inactive) with CCRF-CEM; 0.377 µM (active) in the assay on SK-OV-3; > 100 µM (inactive) with HL-60; > 100 µM (inactive) in the assay on MDA-MB-231; 0.912 µM (active) with OVCAR-5; > 100 µM (inactive) with MDA-MB-435. Also, the GI50 is > 100 µM (inactive) with TK-10; > 100 µM (inactive) in the assay on BT-549; > 100 µM (inactive) in the assay on Malme-3M; > 100 µM (inactive) in the assay on SK-MEL-5; > 100 µM (inactive) in the assay on LOX IMVI; greater than 100 µM in the assay on HCT-15. The GI50 with IGROV-1, in the assay with MCF7, with SF-539, in the assay with NCI-H460 and in the assay on MDA-N was > 100 µM (inactive) each time.

Take `C[N+]1([O-])CCC(O)(C2CC2)CC1` (stereo unspecified): the GI50 with CCRF-CEM, in the assay with SK-OV-3, in the assay on HL-60, in the assay with MDA-MB-231, in the assay with OVCAR-5 and with MDA-MB-435 was > 100 µM (inactive) each time. Besides, the GI50 in the assay on TK-10, with BT-549, in the assay on Malme-3M, with SK-MEL-5, in the assay on LOX IMVI and with NCI-H23 was > 100 µM (inactive) in each case. The GI50 in the assay on HCT-15 is greater than 100 µM; with IGROV-1 it was > 100 µM (inactive); in the assay with SF-295 it was > 100 µM (inactive); with MCF7, > 100 µM (inactive); with T47D it was > 100 µM (inactive).

Consider `COc1ccc(/N=[N+](\[O-])c2ccc(OC)cc2)cc1`, for which the GI50 in the assay on SK-OV-3, with MDA-MB-231, in the assay with OVCAR-5, in the assay with MDA-MB-435, in the assay on TK-10 and in the assay with BT-549 was > 100 µM (inactive) throughout. The GI50 in the assay on Malme-3M is > 100 µM (inactive); in the assay on SK-MEL-5 it was > 100 µM (inactive); with NCI-H23, > 100 µM (inactive); with HCT-15, greater than 100 µM; with IGROV-1 it was > 100 µM (inactive); in the assay on SF-295 it was > 100 µM (inactive). Moreover, the GI50 in the assay on MCF7, with NCI-H460 and in the assay on MDA-N was > 100 µM (inactive) in each case.

For `CCC(=O)NC(Nc1cc(C)on1)(C(F)(F)F)C(F)(F)F`, the GI50 with CCRF-CEM, in the assay on SK-OV-3, in the assay with HL-60, in the assay on MDA-MB-231, in the assay on OVCAR-5 and in the assay with MDA-MB-435 was > 100 µM (inactive) each time. Moreover, the GI50 in the assay on TK-10, in the assay on BT-549, in the assay on Malme-3M, in the assay with SK-MEL-5, with LOX IMVI and in the assay on NCI-H23 was > 100 µM (inactive) throughout. Moreover, the GI50 in the assay with HCT-15 is greater than 100 µM; in the assay on IGROV-1, > 100 µM (inactive); in the assay on MCF7 it was > 100 µM (inactive); with SF-539 it was > 100 µM (inactive); with NCI-H460, > 100 µM (inactive); in the assay on T47D, > 100 µM (inactive).

Take `CC(=O)OCC1OC(n2c3c(cc(C#N)c2=S)CCCCCC3)C(OC(C)=O)C(OC(C)=O)C1OC(C)=O` (stereo unspecified): the GI50 in the assay with CCRF-CEM is 47.3 µM (inactive); in the assay with HL-60 it was 36.2 µM (inactive); with MDA-MB-231, > 100 µM (inactive); in the assay with OVCAR-5, > 100 µM (inactive); in the assay with MDA-MB-435 it was > 100 µM (inactive); in the assay on TK-10 it was > 100 µM (inactive). Besides, the GI50 with BT-549 is > 100 µM (inactive); in the assay on Malme-3M, > 100 µM (inactive); in the assay on SK-MEL-5, 72.1 µM (inactive); with LOX IMVI it was 21.5 µM (inactive); in the assay with NCI-H23, > 100 µM (inactive); with HCT-15, 97.5 µM. Further, the GI50 is > 100 µM (inactive) in the assay with IGROV-1; > 100 µM (inactive) in the assay with SF-295; > 100 µM (inactive) in the assay on MCF7; > 100 µM (inactive) in the assay with SF-539; 42.2 µM (inactive) with NCI-H460; 5.2 µM (inactive) in the assay on T47D.

Consider `CCN1C(=O)/C(=C2\SC(c3ccccc3)(c3ccccc3)c3ccccc32)SC1=S`, for which the GI50 is > 100 µM (inactive) in the assay with CCRF-CEM; > 100 µM (inactive) in the assay with SK-OV-3; 72.3 µM (inactive) in the assay on MDA-MB-231; > 100 µM (inactive) in the assay with OVCAR-5; > 100 µM (inactive) with MDA-MB-435; > 100 µM (inactive) in the assay with TK-10. The GI50 with BT-549 is 43.9 µM (inactive); with Malme-3M, > 100 µM (inactive); with SK-MEL-5, > 100 µM (inactive); in the assay on LOX IMVI, 38.6 µM (inactive); in the assay on NCI-H23 it was > 100 µM (inactive); in the assay with HCT-15 it was greater than 100 µM. Besides, the GI50 is 70.3 µM (inactive) in the assay with IGROV-1; 24.4 µM (inactive) with SF-295; > 100 µM (inactive) in the assay on MCF7; 46.7 µM (inactive) in the assay on SF-539; > 100 µM (inactive) with NCI-H460; > 100 µM (inactive) in the assay with MDA-N.

`Cc1cc(C)c(N[S+]([O-])c2cccc([N+](=O)[O-])c2)c(C)c1` (stereo unspecified): the GI50 with CCRF-CEM, in the assay on HL-60, with OVCAR-5, with MDA-MB-435, with TK-10 and in the assay on BT-549 was > 100 µM (inactive) each time. The GI50 with Malme-3M is > 100 µM (inactive); with NCI-H23, > 100 µM (inactive); in the assay with HCT-15 it was greater than 100 µM; in the assay on SF-295 it was > 100 µM (inactive); with MCF7, > 100 µM (inactive); with SF-539 it was > 100 µM (inactive). The GI50 with NCI-H460 and with T47D was > 100 µM (inactive) each time.

Regarding `O=C1Nc2cccc(Cl)c2/C1=C\c1cccnc1`, the GI50 in the assay with CCRF-CEM is 4.58 µM (inactive); in the assay with SK-OV-3 it was 4.12 µM (inactive); in the assay with HL-60, 3.72 µM (inactive); in the assay with OVCAR-5 it was 3.77 µM (inactive); with MDA-MB-435 it was 5.53 µM (inactive); in the assay with TK-10 it was 17.8 µM (inactive). The GI50 in the assay with BT-549 was 8.53 µM (inactive); with Malme-3M, 9.93 µM (inactive); with SK-MEL-5, 11.4 µM (inactive); in the assay on LOX IMVI, 0.944 µM (active); with NCI-H23 it was 3.75 µM (inactive); in the assay on HCT-15, 6.62 µM. Moreover, the GI50 in the assay on SF-295 is 16.7 µM (inactive); with MCF7 it was 4.02 µM (inactive); with SF-539, 12.4 µM (inactive); in the assay with NCI-H460, 8.22 µM (inactive); in the assay on T47D, 3.65 µM (inactive).

Turning to `CCN(CC)CCCOc1cc2c(cc1OC)C(=O)N1CCC[C@H]1C=N2`, the GI50 was 33.2 µM (inactive) in the assay on CCRF-CEM; 39.7 µM (inactive) in the assay on SK-OV-3; 30.1 µM (inactive) in the assay with HL-60; 24.2 µM (inactive) in the assay with MDA-MB-231; 49.8 µM (inactive) with OVCAR-5; 22.5 µM (inactive) with MDA-MB-435. For the same compound, the GI50 in the assay with TK-10 is 61.8 µM (inactive); in the assay on BT-549 it was 26.9 µM (inactive); with Malme-3M it was 42.5 µM (inactive); in the assay on SK-MEL-5 it was 19.6 µM (inactive); in the assay with LOX IMVI, 16.4 µM (inactive); in the assay on HCT-15 it was 41.5 µM. The GI50 was 28.8 µM (inactive) with SF-295, 43 µM (inactive) in the assay with MCF7, 42.7 µM (inactive) with SF-539 and 97.7 µM (inactive) with NCI-H460.
